Patent US11370771B2, “Inhibitors of TRPC6” (Boehringer Ingelheim International GmbH, priority 2018, dated 2022)

How the values were obtained:
[1] = target: T1, human TRPC6 (Homo sapiens, UniProt Q9Y210); experiment: High Throughput Screening Assay Method 1 (FLIPR membrane potential dye, OAG activation, HEK293 cells expressing human TRPC6); type: cell-based; conditions: antagonist effect against human TRPC6, 60 μM OAG, read-out: Fluorescence TRPC6 IC50
T1 construct: expressed in transfected cells
T1 sequence (Q9Y210 1-931): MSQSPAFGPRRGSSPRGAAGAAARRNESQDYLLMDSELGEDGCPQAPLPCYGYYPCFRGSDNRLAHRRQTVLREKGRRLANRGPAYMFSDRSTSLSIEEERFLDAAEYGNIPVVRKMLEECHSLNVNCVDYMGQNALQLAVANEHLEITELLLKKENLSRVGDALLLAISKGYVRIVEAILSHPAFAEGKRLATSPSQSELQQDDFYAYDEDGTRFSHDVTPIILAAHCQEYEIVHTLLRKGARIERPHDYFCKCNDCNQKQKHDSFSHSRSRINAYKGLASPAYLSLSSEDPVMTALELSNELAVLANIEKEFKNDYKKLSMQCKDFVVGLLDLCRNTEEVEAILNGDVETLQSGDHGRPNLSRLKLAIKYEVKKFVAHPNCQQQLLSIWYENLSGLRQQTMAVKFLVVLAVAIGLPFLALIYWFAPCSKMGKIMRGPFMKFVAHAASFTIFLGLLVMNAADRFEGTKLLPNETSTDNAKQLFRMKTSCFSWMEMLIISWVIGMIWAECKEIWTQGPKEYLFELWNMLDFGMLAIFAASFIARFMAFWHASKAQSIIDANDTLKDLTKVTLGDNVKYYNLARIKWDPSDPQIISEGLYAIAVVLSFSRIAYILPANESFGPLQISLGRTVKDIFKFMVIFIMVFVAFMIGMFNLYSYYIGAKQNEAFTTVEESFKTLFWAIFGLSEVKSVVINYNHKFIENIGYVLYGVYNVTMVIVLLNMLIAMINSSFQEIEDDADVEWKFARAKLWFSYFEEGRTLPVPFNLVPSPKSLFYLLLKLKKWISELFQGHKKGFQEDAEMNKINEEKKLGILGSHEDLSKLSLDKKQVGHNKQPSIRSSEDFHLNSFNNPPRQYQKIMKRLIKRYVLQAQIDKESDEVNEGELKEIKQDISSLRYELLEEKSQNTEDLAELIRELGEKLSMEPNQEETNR
From the text: (§1) This screening assay measures TRPC6 (transient receptor potential cation channel, subfamily C, member 6) ion channel activation via addition either of the commercially available DAG ligand analogue OAG (1-oleoyl-2-acetyl-sn-glycerol) or of the TRPC6 agonist 1-[1-(4,5,6,7,8-pentahydrocyclohepta[2,1-d]thiophen-2-ylcarbonyl)-4-piperidyl]-3-hydrobenzimidazol-2-one (GSK1702934A). The assay utilizes a FLIPR membrane potential (FMP) dye from Molecular Devices, which is a voltage sensitive indicator with a fluorescent quencher. Changes in membrane potential as measured by the fluorescent signal increase during membrane depolarization provide a measurement of channel activity.
The commercially available HEK293 cell line expressing human TRPC6 channel (Axxam/PerkinElmer) is scaled up in bulk and frozen in liquid nitrogen. Frozen cell stocks are thawed and re-suspended in culture media as recommended by the manufacturer supplemented with 0.5 mg/ml of geneticin to promote retention of the TRPC6 construct. Cells are plated at a density of 15,000 cells/well in Greiner 384 well poly-D-lysine coated black clear bottom plates, and incubated for 18-20 h at 37° C. and 5% CO2. To initiate the assay, the growth media is removed using a plate washer and 25 ul of a FMP dye mix is added to each well. The 4× stock FMP dye from the manufacturer is diluted 1× with assay buffer (low calcium Tyrode's assay buffer: 130 mM NaCl, 5 mM KCl, 0.15 mM CaCl2), 1 mM MgCl2, 5 mM NaHCO3, 20 mM HEPES pH 7.4) containing 36 μM BAPTA/AM. The cells are incubated at room temperature (19-22° C.) for 30 minutes. For the screening assay, 5 uL of diluted compound stock is added to each well and incubated for 15 minutes at room temperature (19-22° C.). Using the Hamamatsu FDSS6000 or FDSS7000, 10 uL of the synthetic, membrane permeant analog of 1,2 diacylglycerol (DAG), 1-oleoyl-2-acetoyl-n-glycerol (OAG), is added and fluorescent readings taken every second from 50 seconds to 3 minutes. […] Controls and blanks consisted of HEK293 TRPC6 cells that are exposed to OAG. A reference inhibitor added along with the test compound is included as part of the blanks. This inhibitor suppresses the TRPC6 channel activation. These controls set the screening window, and “hits” are defined as those compounds inhibiting the membrane depolarization caused by OAG by at least 50%. IC50 values are determined for compounds that meet these criteria by titrating compound stock at a final starting concentration of 30 μM using a 3-fold serial dilution for 11 points. Curves are generated by fitting each data set to a four-parameter logistic equation using nonlinear regression.

[2] = target: T1, human TRPC6; experiment: High Throughput Screening Assay Method 2 (membrane potential dye, GSK1702934A agonist, HEK293 stably transfected with human TRPC6); type: cell-based; conditions: antagonist effect against human TRPC6, 3 μM GSK1702934A agonist, HEK293 TRPC6 cells, read-out: Fluorescence TRPC6 IC50
From the text: as §1
The commercially available HEK293 cell line (ATCC) was stably transfected with an human TRPC6 gene construct in pcDNA3.1(+) (Thermo Fisher) and screened to find a clone with TRPC6 expression. These cells were maintained in growth medium recommended by the manufacturer supplemented with 400 μg/ml G418 to promote retention of the TRPC6 construct. After growing to near confluency, cells were plated at a density of 15,000 cells/well in clear bottom black walled poly-D-Lys coated 384-well tissue culture treated plates (TwinHelix, cat. #GR 4332 CPL) in growth medium lacking G418, and allowed to grow for 24 hrs. Growth media was removed from the wells and cells were then loaded with 20 μL of 0.5× Membrane Potential sensitive dye (Molecular Devices) in the presence of 30 μM BAPTA-AM (Invitrogen) in Tyrode's assay buffer (130 mM NaCl, 5 mM KCl, 0.15 mM CaCl2), 1 mM MgCl2, 5 mM NaHCO3, 20 mM HEPES, pH 7.4) and incubated for 60 min at room temperature in the dark. Ten μL/well of test compound or controls was added to the wells with the FLIPR^TETRA (Molecular Devices) and incubated for 5 minutes. Compounds were tested at eight concentrations (10, 3.16, 1, 0.316, 0.1, 0.0316, 0.01 and 0.00316 μM diluted in Tyrode's assay buffer and 0.5% DMSO, final concentration) with inter-plate duplicate data points. Subsequently, 15 μL/well of GSK1702934A agonist in Tyrode's assay buffer was added to a final concentration of 3 μM by the FLIPR^TETRA and the signal of the emitted fluorescence (Excitation: 510-545 nm, Emission: 565-625 nm) was recorded for 3 minutes. Negative and positive controls were included on each plate. Negative controls wells consisted of cells exposed to Tyrode's assay buffer and agonist solution, but no test compound. Positive control consisted of cells exposed to […] Verapamil hydrochloride (Tocris, cat. #0654) diluted in Tyrode's assay buffer and 0.5% DMSO final concentration and agonist solution. Inhibition was expressed as a percentage of control, with 0% activity being a result in which the response value of the test wells reached a level identical to the wells containing Verapamil plus GSK1702934A and 100% activity being a result in which the response value of the test wells reached a level identical to the wells containing GSK1702934A alone. Genedata Screener® 14.0.6 was used for data analysis to fit IC50 curves.

Row | IC50 [1] [nM] | IC50 [2] [nM] | SMILES
1 | 324 | – | CCc1ccc(Oc2ccc(C(=O)N3CCN(c4ccc(N)nc4)CC3)cc2)cc1 [Compound 14, 5-{4-[4-(4-ethylphenoxy)benzoyl]piperazin-1-yl}pyridin-2-amine]
2 | 2070 | – | CC(=O)c1ccc(Oc2ccc(C(=O)N3CCC(c4ccc(N)nn4)CC3)cc2)cc1 [Compound 16, 1-(4-{4-[4-(6-aminopyridazin-3-yl)piperidine-1-carbonyl]phenoxy}phenyl)ethan-1-one]
3 | 422 | – | Nc1ccc(N2CCN(C(=O)c3ccc(Oc4ccccc4)cc3)CC2)cn1 [Compound 15, 5-[4-(4-phenoxybenzoyl)piperazin-1-yl]pyridin-2-amine]
4 | 2190 | – | CC(C)c1ccc(Oc2ccc(C(=O)N3CCC(c4ccc(N)nn4)CC3)cc2)cc1 [Compound 17, 6-(1-{4-[4-(propan-2-yl)phenoxy]benzoyl}piperidin-4-yl)pyridazin-3-amine]
5 | 266 | – | Nc1ccc(C2CCN(C(=O)c3ccc(Oc4ccc(Cl)cc4)cc3)CC2)nn1 [Compound 13, 6-{1-[4-(4-chlorophenoxy)benzoyl]piperidin-4-yl}pyridazin-3-amine]
6 | 1310 | – | CC(C)c1ccc(Oc2ccc(C(=O)N3CCN(c4ccc(N)nn4)CC3)cc2)cc1 [Compound 18, 6-(4-{4-[4-(propan-2-yl)phenoxy]benzoyl}piperazin-1-yl)pyridazin-3-amine]
7 | 1330 | – | Nc1ccc(N2CCN(C(=O)c3ccc(Oc4ccc(C(F)(F)F)cc4)cc3)CC2)cn1 [Compound 19, 5-(4-{4-[4-(trifluoromethyl)phenoxy]benzoyl}piperazin-1-yl)pyridin-2-amine]
8 | 326 | – | Nc1ccc(C2CCN(C(=O)c3ccc(Oc4ccccc4)cc3)CC2)cn1 [Compound 1, 5-[1-(4-phenoxybenzoyl)piperidin-4-yl]pyridin-2-amine]
9 | 1160 | – | CCc1ccc(Oc2ccc(C(=O)N3CCN(c4ccc(N)nn4)CC3)cc2)cc1 [Compound 20, 6-{4-[4-(4-ethylphenoxy)benzoyl]piperazin-1-yl}pyridazin-3-amine]
10 | – | 478 | COc1cc(C(=O)N2CCC(c3cnc(N)cc3OC)CC2)c(F)cc1OCC1CC(F)(F)C1 [Compound 37, 5-(1-{4-[(3,3-Difluorocyclobutyl)methoxy]-2-fluoro-5-methoxybenzoyl}piperidin-4-yl)-4-methoxypyridin-2-amine]
11 | – | 166 | COc1cc(N)ncc1C1CCN(C(=O)c2cc(F)c(Oc3ccc(F)cc3)cc2F)CC1 [Compound 30, 5-{1-[2,5-Difluoro-4-(4-fluorophenoxy)benzoyl]piperidin-4-yl}-4-methoxypyridin-2-amine]
12 | – | 80 | Nc1ccc([C@@H]2CCN(C(=O)c3cc(F)c(Oc4ccc(F)cc4)cc3F)[C@H](CO)C2)nn1 [Compound 52b, [(2S,4R)-4-(6-Aminopyridazin-3-yl)-1-[2,5-difluoro-4-(4-fluorophenoxy)benzoyl]piperidin-2-yl]methanol]
13 | – | 135 | COc1cc(C(=O)N2CCC(c3cnc(N)cc3OC)CC2)c(F)cc1OCC1CCC1 [Compound 36, 5-{1-[4-(Cyclobutylmethoxy)-2-fluoro-5-methoxybenzoyl]piperidin-4-yl}-4-methoxypyridin-2-amine]
14 | – | 141 | Nc1ccc(C2CCN(C(=O)c3ccc(Oc4ccc(F)cc4)c(F)c3)CC2)nn1 [Compound 48, 6-{1-[3-Fluoro-4-(4-fluorophenoxy)benzoyl]piperidin-4-yl}pyridazin-3-amine]
15 | – | 2170 | COc1cc(N)ncc1C1CCN(C(=O)c2ccc(OCC3CCCCC3)cc2F)CC1 [Compound 41, 5-{1-[4-(Cyclohexylmethoxy)-2-fluorobenzoyl]piperidin-4-yl}-4-methoxypyridin-2-amine]
16 | – | 288 | Cc1cc(C2CCN(C(=O)c3ccc(Oc4ccc(F)cc4)cc3)CC2)nnc1N [Compound 50, 6-{1-[4-(4-Fluorophenoxy)benzoyl]piperidin-4-yl}-4-methylpyridazin-3-amine]
17 | – | 1810 | COc1cc(N)ncc1C1CCN(C(=O)c2ccc(OCc3ccccc3)cc2F)CC1 [Compound 43, 5-{1-[4-(Benzyloxy)-2-fluorobenzoyl]piperidin-4-yl}-4-methoxypyridin-2-amine]
18 | – | 791 | COc1cc(N)ncc1C1CCN(C(=O)c2ccc(OC[C@@H]3C[C@H]3C)cc2F)CC1 (relative stereo) [Compound 38, 5-[1-(2-Fluoro-4-{[trans-2-methylcyclopropyl]methoxy}benzoyl)piperidin-4-yl]-4-methoxypyridin-2-amine]
19 | – | 97 | COc1cc(N)ncc1C1CCN(C(=O)c2ccc(Oc3ccc(F)cc3)cc2)CC1 [Compound 32, 5-{1-[4-(4-Fluorophenoxy)benzoyl]piperidin-4-yl}-4-methoxypyridin-2-amine]
20 | – | 158 | COc1cc(C(=O)N2CCC(c3cnc(N)cc3OC)CC2)c(F)cc1Oc1ccc(F)cc1 [Compound 29, 5-{1-[2-Fluoro-4-(4-fluorophenoxy)-5-methoxybenzoyl]piperidin-4-yl}-4-methoxypyridin-2-amine]
21 | – | 641 | COc1cc(N)ncc1C1CCN(C(=O)c2ccc(OCc3ccon3)cc2F)CC1 [Compound 53, 5-(1-{2-Fluoro-4-[(1,2-oxazol-3-yl)methoxy]benzoyl}piperidin-4-yl)-4-methoxypyridin-2-amine]
